What is called TGI is the concentration at which net growth stops. Lower therefore signals more potent growth arrest. Broadly, the GI50 is the concentration giving 50% growth inhibition.

Holding throughout (assay): DTP human tumour cell line panel, 48 h
In assay [1] the test system is A498 renal.
The test system of assay [2] is OVCAR-8 ovarian.
The subject of assay [3] is NCI-H522 lung.
Assay [4] has as its system EKVX NSCLC.
Assay [5] deals with UO-31 renal.
For assay [6], the system named is SR leukemia.
For assay [7], the system named is MDA-MB-231 breast.
Assay [8] relates to HCC-2998 colon.
The subject of assay [9] is CCRF-CEM leukemia.
For assay [10], the system named is HOP-62 NSCLC.

Each structure is given as a SMILES string. “And” between values parts separate entries of the source, which are not always exact repeats. Equal entries are not always repeated.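 Step 1: Grow cells in 96-well plates. Step 2: Expose to compound for 48 hours at 5 concentrations. Step 3: Interpolate endpoints linearly; if unreached, use highest concentration. Abbreviation: GI50, concentration required for 50% inhibition of growth. TGI: concentration producing complete growth inhibition.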

As to `COC(=O)c1ccccc1/C=C1/Cc2ccccc2C1=O`, the TGI in assay [1], in assay [2], in assay [3], in assay [4], in [5] and in assay [6] was > 100 µM each time. Moreover, the TGI in [7] was > 100 µM; in assay [8], > 100 µM; in [9] it was 98.5 µM; in assay [10], > 100 µM.

With `O=C1CCSSCCC(=O)NCCN1`, the TGI in [1], in assay [2], in [3], in [4], in [5] and in assay [6] was > 100 µM throughout. Also, the TGI in assay [7], in [9] and in assay [10] was > 100 µM throughout.

With `C/C(N=Nc1nc2ccccc2s1)=C1/C=CC=CN1O`, the TGI in assay [1] was > 100 µM; in assay [2], > 100 µM; in assay [3], 91.6 µM; in [4] it was 6.03 µM; in [5], > 100 µM; in assay [6], > 100 µM. Besides, the TGI in assay [7] is > 100 µM; in assay [8], 0.0978 µM; in [9] it was > 100 µM; in assay [10], > 100 µM.

As for `CC(C)=C[C@@H]1C[C@H](n2cc(C)c(=O)[nH]c2=O)ON1CCO`, the TGI in assay [1], in assay [2], in [3], in assay [4], in assay [5] and in assay [6] was > 100 µM throughout. Also, the TGI in [7], in assay [9] and in [10] was > 100 µM throughout.

Regarding `CN(C)c1ccc(-c2c(C#N)c(S)n(NS(=O)(=O)c3ccccc3)c(=O)c2C#N)cc1`, the TGI is > 100 µM in [1]; 56.8 µM in assay [2]; 44.5 µM in [3]; > 100 µM in assay [4]; 86.4 µM in [5]; > 100 µM in assay [6]. The concentration for total growth inhibition (TGI) in assay [7], in [8] and in assay [9] was > 100 µM each time.

Consider `Cc1cc(-c2nc3c(O)cccc3s2)ccc1N`, for which the total growth inhibition concentration (TGI) turned out to be 54.4 µM in assay [2]; 39.9 µM in assay [3]; 52.9 µM in [4]; 36.6 µM in assay [5]; 93.8 µM in [6]; 61.7 µM in [7]. In addition, the values for the TGI in assay [8], in [9] and in assay [10] were > 100 µM, 82.9 µM and 88.8 µM, respectively.

As for `COc1ccc(CC(CO)NC(=O)OCc2ccccc2)cc1Oc1ccc(CC(CO)NC(=O)OCc2ccccc2)cc1` (stereo unspecified), the TGI was 34.9 µM in assay [1]; 18.4 µM in [3]; 19.1 µM in [4]; 31.4 µM in [5]; > 100 µM in assay [6]; 36 µM in assay [7]. Besides, the TGI in [8] was determined as 93.6 µM; in [9], 66.6 µM; in assay [10], 31.8 µM.

As to `C=C1C(=O)OC2/C=C(\CO)C(OC(C)=O)CC(O)/C(C)=C/C(OC(=O)C(C)CC)C12` (stereo unspecified), the TGI was 91.9 µM and 88.7 µM in assay [1]; 36.4 µM and 52.1 µM in [2]; 15.6 µM and 20.3 µM in assay [3]; 54.5 µM and 61.5 µM in [4]; > 100 µM in assay [5]; 39.2 µM in [6]. The TGI is 32.7 µM in assay [7]; 52.7 µM and 30.4 µM in assay [8]; 22.7 µM and 69 µM in assay [9]; > 100 µM in assay [10]. In addition, the GI50 in assay [9] was 3.76 µM and 11.4 µM.

Regarding `COc1cc2c(cc1OC)C1c3ccccc3CCN1CC2` (stereo unspecified), the TGI in assay [1], in [2], in assay [3], in assay [4], in assay [6] and in [7] was > 100 µM throughout. For the same compound, the TGI in assay [8], in [9] and in assay [10] was > 100 µM in each case.

Consider `CCOP(=O)(OCC)C1C(CO)OC(n2ccc(=O)[nH]c2=O)C1O` (stereo unspecified), for which the TGI in assay [1], in assay [2], in assay [3], in [4], in assay [5] and in [6] was > 100 µM throughout. Also, the TGI in [7], in [8] and in [10] was > 100 µM in each case.

For the compound `C=C(Cl)/C(=C\Cl)CCC(Br)C(C)C` (stereo unspecified), the TGI in [1] was > 100 µM; in assay [3], 39.9 µM; in [4] it was > 100 µM; in [5], > 100 µM; in assay [6] it was > 100 µM; in assay [7], 45.4 µM. Also, the TGI in [8], in assay [9] and in assay [10] was > 100 µM in each case.

Take `COc1ccc(/C(=N/O)c2ccccc2-c2nc3ccccc3c(=O)n2-c2ccc(S(=O)(=O)Nc3ncccn3)cc2)cc1C`: the TGI in [1] was > 31.6 µM; in assay [2], > 31.6 µM; in assay [3], 23.7 µM; in assay [4], > 31.6 µM; in assay [5] it was > 31.6 µM; in assay [6] it was 31 µM. Besides, the TGI is > 31.6 µM in assay [7], 21.7 µM in assay [8], 25.5 µM in [9] and > 31.6 µM in assay [10].

As for `O=C(NC(Cc1c[nH]c2ccccc12)C(=O)O)/C(=C/c1ccccc1O)NC(=O)c1ccccc1` (stereo unspecified), the TGI in assay [1] was > 100 µM; in [2], 28.9 µM; in assay [3], > 100 µM; in [4], > 100 µM; in assay [5] it was 18.7 µM; in assay [6] it was > 100 µM. Besides, the TGI was 65 µM in assay [7], > 100 µM in assay [8] and > 100 µM in [9].

Turning to `CC1(C)O[C@@H]2COC(=O)[C@@H]2O1`, the TGI in assay [1], in assay [2], in assay [3], in assay [4], in assay [5] and in assay [6] was > 100 µM in each case. In addition, the TGI in assay [7], in assay [8] and in assay [9] was > 100 µM each time.

Regarding `CCCCOC(C)(C)/C=C/C(O)[C@](C)(O)[C@H]1[C@H](O)C[C@@]2(C)[C@@H]3CCc4c(cc(OC5OC(CO)C(O)C(O)C5O)c(O)c4C)C3(C)C(=O)C[C@]12C` (stereo partly specified), the concentration for total growth inhibition (TGI) in assay [1], in assay [2], in assay [3], in [4], in [5] and in assay [6] was > 100 µM each time. Also, the TGI in assay [7], in assay [8], in [9] and in assay [10] was > 100 µM in each case.

Consider `CSCCC(NCc1c(O)ccc2c(-c3ccccc3)cc(=O)oc12)C(=O)O` (stereo unspecified), for which the total growth inhibition concentration (TGI) in [2], in assay [3], in [4], in assay [5], in assay [6] and in [7] was > 100 µM each time. Also, the TGI in assay [8], in assay [9] and in [10] was > 100 µM in each case.

Regarding `CCC[C@H]1C(=O)N=C(N)N1C(=O)OCc1ccccc1`, the total growth inhibition concentration (TGI) in [1], in assay [2], in [3], in [4], in assay [5] and in assay [6] was > 100 µM throughout. The TGI in [7], in [8] and in assay [10] was > 100 µM throughout.

Take `O=C1c2ccccc2CN1c1ccc(O)cc1`: the TGI in assay [1], in [2], in assay [3], in assay [4], in assay [6] and in assay [7] was > 100 µM in each case. Also, the TGI in [8], in assay [9] and in assay [10] was > 100 µM throughout.

In the case of `COc1ccc(N[C@H](CSc2ccc(C)cc2)c2ccc(F)cc2)cc1`, the TGI in assay [2], in assay [3], in [4], in assay [5], in [6] and in [7] was > 100 µM each time. Further, the TGI in assay [8], in assay [9] and in assay [10] was > 100 µM throughout.

With `CC(=O)OC[C@]1(C(=O)C(O)c2ccoc2)[C@H](C)CC[C@@]23COC(=O)C2=CCC[C@@H]31` (stereo partly specified), the TGI in assay [1], in [2], in assay [3], in [4], in assay [5] and in [6] was > 10 µM in each case. The TGI in [7], in assay [8] and in assay [9] was > 10 µM each time.

`COc1ccc(N2C(=O)c3c4c(c5c([nH]c6ncccc65)c3C2=O)CCC(C(C)(C)C)C4)cc1` (stereo unspecified): the concentration for total growth inhibition (TGI) in assay [2], in assay [3], in assay [4], in assay [5], in assay [6] and in assay [7] was > 100 µM throughout. The TGI in [8], in assay [9] and in [10] was > 100 µM in each case.

On to `CC1(C)C(c2ccccc2)=[N+]([O-])C(C)(C)N1O`, for which the TGI in assay [1], in assay [2], in assay [3], in [4], in [6] and in assay [7] was > 10 µM throughout. For the same compound, the TGI in assay [8], in assay [9] and in [10] was > 10 µM throughout.

For `CN(C)NC(=S)Nc1ccccc1Br`, the TGI in assay [1], in assay [2], in [3], in [4], in assay [5] and in [6] was > 100 µM throughout. Moreover, the TGI in [7] and in [9] was > 100 µM in each case.

Take `CC(C)(C)N=c1n(C(C)(C)C)oc(=O)n1C(C)(C)C`: the concentration for total growth inhibition (TGI) in assay [1], in [2], in [4], in [5], in assay [6] and in assay [7] was > 100 µM throughout. Further, the TGI in assay [8], in [9] and in assay [10] was > 100 µM in each case.

For `CCN(CC)CCOC(NC(C)=O)(c1ccccc1)c1ccccc1`, the total growth inhibition concentration (TGI) in [1], in assay [2], in assay [4], in [5], in [6] and in assay [7] was > 100 µM in each case. Moreover, the TGI in assay [8], in [9] and in assay [10] was > 100 µM in each case.

For the compound `Cc1cc2c(C)cc(=O)[nH]c2cc1N`, the total growth inhibition concentration (TGI) in assay [1], in [2], in assay [4], in assay [5], in assay [6] and in assay [7] was > 100 µM throughout. Moreover, the TGI in assay [8], in assay [9] and in assay [10] was > 100 µM throughout.

Take `COc1ccc(Nc2nc3ccc(C(F)(F)F)cc3nc2C(=O)O)cc1OC`: the TGI in [1] was 86.6 µM; in assay [2] it was > 100 µM; in assay [3] it was 84.6 µM; in assay [4], > 100 µM; in assay [5] it was 43.7 µM; in [6] it was 58 µM. The TGI in [7] is > 100 µM; in assay [8], 43.7 µM; in assay [10], 75.4 µM.

As to `O=C(CN1CCCCC1)CC(O)(C(F)(F)F)C(F)(F)F`, the TGI in assay [1], in [2], in assay [3], in [4], in assay [5] and in assay [6] was > 100 µM in each case. Moreover, the TGI in assay [7], in [8] and in [9] was > 100 µM each time.

As to `N#Cc1nc(-c2cc([N+](=O)[O-])cc([N+](=O)[O-])c2)oc1N`, the TGI in [2], in assay [3], in assay [4], in [5], in [6] and in [7] was > 10 µM each time. Moreover, the TGI in [8], in assay [9] and in assay [10] was > 10 µM in each case.

(Values after PubChem BioAssay (NCI).)
